The source of these data is patent US20250092039A1, “GLUTARIMIDE-CONTAINING PAN-KRAS-MUTANT DEGRADER COMPOUNDS AND USES THEREOF” (Tiger Biotherapeutics Inc., priority 2022, published 2025).

The test system of test [1] is SW620 cells. The test can be described thus: 3D cell growth inhibition of SW620 cells carrying endogenous KRAS G12V mutation (CellTiter-Glo 3D, GI50). It counts as cell-based. To be noted: Homo sapiens, SW-620, 144 h; SW620 cells, 6 days; read-out: SW620 3D cell growth GI50. An outline of the steps:
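[…], compound exposure lasted 6 days at 37° C, added the day after plating from DMSO stocks over a concentration range. Cells: SW620, KRAS G12V, 3D culture.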
(In general: Cellular ATP, detected with luciferase, serves as a proxy for viable cell number.)

Test [2] addresses KRAS-G12V/RAF1 (Homo sapiens (Human), UniProt P01116, G12V). The experiment in a line: KRAS/RAF1 binding inhibition assay (AlphaScreen). The method in brief: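 IC50 comes from variable-slope nonlinear fits of % inhibition (relative to DMSO) against inhibitor concentration. The AlphaScreen signal tracks the interaction of GppNHp-bound KRAS G12V with the RAF1 RBD after 60 min at 4° C with compound in 2% DMSO final.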
On the technique in general: In Alpha technology, singlet oxygen from a donor bead excites a nearby acceptor bead.

Test [3] deals with KRAS G12V (Homo sapiens (Human), UniProt P01116, G12V). The experiment in a line: KRAS G12V degradation in SW620 cells (Western blot, DC50). The settings on record: 24 hours. It counts as cell-based. The method in brief:
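KRAS levels were quantified by fluorescent Western blot as percent of the DMSO control after 24 h of compound exposure at 37° C in homozygous KRAS G12V SW620 cells. A four-parameter variable-slope fit of the dose-response gave the half-maximal degradation concentration.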
In general terms: In western blotting, separated proteins are transferred to a membrane and probed.

Sequence of KRAS G12V (P01116-2 other isoform, or with tags, fused parts or gaps G12V): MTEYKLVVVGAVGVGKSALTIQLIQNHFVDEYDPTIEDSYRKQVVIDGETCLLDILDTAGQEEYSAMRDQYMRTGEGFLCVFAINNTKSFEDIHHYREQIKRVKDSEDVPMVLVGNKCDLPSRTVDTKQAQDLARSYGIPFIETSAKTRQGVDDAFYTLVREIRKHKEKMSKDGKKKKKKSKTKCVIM
Sequence of KRAS-G12V/RAF1 (P01116-2 other isoform, or with tags, fused parts or gaps G12V): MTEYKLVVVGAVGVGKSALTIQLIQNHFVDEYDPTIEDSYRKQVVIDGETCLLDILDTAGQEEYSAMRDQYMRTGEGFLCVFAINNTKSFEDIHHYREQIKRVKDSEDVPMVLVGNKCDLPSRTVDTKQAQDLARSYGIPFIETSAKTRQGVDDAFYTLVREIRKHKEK

As for `CCc1c(F)ccc2cc(O)cc(-c3ncc4c(N5CCC[C@@](C)(O)C5)nc(OCC5(CN6CC(CN7CCC(N8CCN(c9ccc%10c(c9)CN([C@H]9CCC(=O)NC9=O)C%10=O)CC8)CC7)C6)CC5)nc4c3F)c12` [Compound 149, (S)-3-(5-(4-(1-((1-((1-(((7-(8-ethyl-7-fluoro-3-hydroxynaphthalen-1-yl)-8-fluoro-4-((R)-3-hydroxy-3-methylpiperidin-1-yl)pyrido[4,3-d]pyrimidin-2-yl)oxy)methyl)cyclopropyl)methyl)azetidin-3-yl)methyl)piperidin-4-yl)piperazin-1-yl)-1-oxoisoindolin-2-yl)piperidine-2,6-dione], the GI50 in test [1] lay within 10 to 100 nM. Besides, in test [2], the IC50 lay in the range of 20 to 200 nM. The compound also registered a half-maximal degradation concentration (DC50) in test [3] of over 100 nM.
With `CCc1c(F)ccc2cc(O)cc(-c3ncc4c(N5CCC[C@@](C)(O)C5)nc(OCC5(CN6CCC7(CC6)CC(C)(CN6CCN(c8ccc9c(c8)CN([C@H]8CCC(=O)NC8=O)C9=O)CC6)C7)CC5)nc4c3F)c12` [Compound 150, (3S)-3-[5-[4-[[7-[[1-[[7-(8-ethyl-7-fluoro-3-hydroxy-1-naphthyl)-8-fluoro-4-[(3R)-3-hydroxy-3-methyl-1-piperidyl]pyrido[4,3-d]pyrimidin-2-yl]oxymethyl]cyclopropyl]methyl]-2-methyl-7-azaspiro[3.5]nonan-2-yl]methyl]piperazin-1-yl]-1-oxo-isoindolin-2-yl]piperidine-2,6-dione], the GI50 in test [1] is under 10 nM. In test [2], this compound showed an IC50 of 20 to 200 nM. Besides, the half-maximal degradation concentration (DC50) in test [3] was under 1 nM.
Regarding `CCc1c(F)ccc2cc(O)cc(-c3ncc4c(N5CCC[C@@](C)(O)C5)nc(OCC5(CN6CCC(N7CCC8(CC7)CN(c7ccc9c(c7)CN(C7CCC(=O)NC7=O)C9=O)C8)CC6)CC5)nc4c3F)c12` (stereo partly drawn) [Compound 151, 3-(5-(7-(1-((1-(((7-(8-ethyl-7-fluoro-3-hydroxynaphthalen-1-yl)-8-fluoro-4-((R)-3-hydroxy-3-methylpiperidin-1-yl)pyrido[4,3-d]pyrimidin-2-yl)oxy)methyl)cyclopropyl)methyl)piperidin-4-yl)-2,7-diazaspiro[3.5]nonan-2-yl)-1-oxoisoindolin-2-yl)piperidine-2,6-dione], the concentration for 50% growth inhibition (GI50) in test [1] was under 10 nM. This compound also showed an IC50 in test [2] of 20 to 200 nM. In test [3], the 50% degradation concentration (DC50) was under 1 nM.
In the case of `CCc1c(F)ccc2cc(O)cc(-c3ncc4c(N5CCC[C@@](C)(O)C5)nc(OCC5(CN6CC(N7CCC8(CC7)CN(c7ccc9c(c7)CN(C7CCC(=O)NC7=O)C9=O)C8)C6)CC5)nc4c3F)c12` (stereo partly drawn) [Compound 152, 3-(5-(7-(1-((1-(((7-(8-ethyl-7-fluoro-3-hydroxynaphthalen-1-yl)-8-fluoro-4-((R)-3-hydroxy-3-methylpiperidin-1-yl)pyrido[4,3-d]pyrimidin-2-yl)oxy)methyl)cyclopropyl)methyl)azetidin-3-yl)-2,7-diazaspiro[3.5]nonan-2-yl)-1-oxoisoindolin-2-yl)piperidine-2,6-dione], in test [1], the GI50 is under 10 nM. The IC50 in test [2] was in the range of 20 to 200 nM. Besides, the 50% degradation concentration (DC50) in test [3] was under 1 nM.
On the same counts, the results for `CCc1c(F)ccc2cc(O)cc(-c3ncc4c(N5CCC[C@@](C)(O)C5)nc(OCC5(CN6CC(N7CCC8(CCN(c9ccc%10c(c9)CN(C9CCC(=O)NC9=O)C%10=O)CC8)CC7)C6)CC5)nc4c3F)c12` (stereo partly drawn) [Compound 153, 3-(5-(9-(1-((1-(((7-(8-ethyl-7-fluoro-3-hydroxynaphthalen-1-yl)-8-fluoro-4-((R)-3-hydroxy-3-methylpiperidin-1-yl)pyrido[4,3-d]pyrimidin-2-yl)oxy)methyl)cyclopropyl)methyl)azetidin-3-yl)-3,9-diazaspiro[5.5]undecan-3-yl)-1-oxoisoindolin-2-yl)piperidine-2,6-dione] are under 10 nM, 20 to 200 nM and under 1 nM.
On the same counts, the results for `CCc1c(F)ccc2cc(O)cc(-c3ncc4c(N5CCC[C@@](C)(O)C5)nc(OCC5(CN6CCC(N7CC8(CN(c9ccc%10c(c9)CN(C9CCC(=O)NC9=O)C%10=O)C8)C7)CC6)CC5)nc4c3F)c12` (stereo partly drawn) [Compound 154, 3-(5-(6-(1-((1-(((7-(8-ethyl-7-fluoro-3-hydroxynaphthalen-1-yl)-8-fluoro-4-((R)-3-hydroxy-3-methylpiperidin-1-yl)pyrido[4,3-d]pyrimidin-2-yl)oxy)methyl)cyclopropyl)methyl)piperidin-4-yl)-2,6-diazaspiro[3.3]heptan-2-yl)-1-oxoisoindolin-2-yl)piperidine-2,6-dione] are under 10 nM, under 20 nM and under 1 nM.
On the same counts, the results for `CCc1c(F)ccc2cc(O)cc(-c3ncc4c(N5CCC[C@@](C)(O)C5)nc(OCC5(CN6CCC7(CC6)CN(C6CCN(c8ccc9c(c8)CN(C8CCC(=O)NC8=O)C9=O)CC6)C7)CC5)nc4c3F)c12` (stereo partly drawn) [Compound 155, 3-(5-(4-(7-((1-(((7-(8-ethyl-7-fluoro-3-hydroxynaphthalen-1-yl)-8-fluoro-4-((R)-3-hydroxy-3-methylpiperidin-1-yl)pyrido[4,3-d]pyrimidin-2-yl)oxy)methyl)cyclopropyl)methyl)-2,7-diazaspiro[3.5]nonan-2-yl)piperidin-1-yl)-1-oxoisoindolin-2-yl)piperidine-2,6-dione] are under 10 nM, under 20 nM and under 1 nM.
Turning to `CCc1c(F)ccc2cc(O)cc(-c3ncc4c(N5CCC[C@@](C)(O)C5)nc(OCC5(CN6CCN(C7CC8(C7)CN(c7ccc9c(c7)CN(C7CCC(=O)NC7=O)C9=O)C8)CC6)CC5)nc4c3F)c12` (stereo partly drawn) [Compound 161, 3-(5-(6-(4-((1-(((7-(8-ethyl-7-fluoro-3-hydroxynaphthalen-1-yl)-8-fluoro-4-((R)-3-hydroxy-3-methylpiperidin-1-yl)pyrido[4,3-d]pyrimidin-2-yl)oxy)methyl)cyclopropyl)methyl)piperazin-1-yl)-2-azaspiro[3.3]heptan-2-yl)-1-oxoisoindolin-2-yl)piperidine-2,6-dione], in test [1], the GI50 was under 10 nM. This compound showed an IC50 in test [2] of 20 to 200 nM. Besides, in test [3], the DC50 is under 1 nM.
For `CCc1c(F)ccc2cc(O)cc(-c3ncc4c(N5CCC[C@@](C)(O)C5)nc(OCC5(CN6CCN(C7CC8(CCN(c9ccc%10c(c9)CN(C9CCC(=O)NC9=O)C%10=O)CC8)C7)CC6)CC5)nc4c3F)c12` (stereo partly drawn) [Compound 162, 3-[5-[2-[4-[[1-[[7-(8-ethyl-7-fluoro-3-hydroxy-1-naphthyl)-8-fluoro-4-[(3R)-3-hydroxy-3-methyl-1-piperidyl]pyrido[4,3-d]pyrimidin-2-yl]oxymethyl]cyclopropyl]methyl]piperazin-1-yl]-7-azaspiro[3.5]nonan-7-yl]-1-oxo-isoindolin-2-yl]piperidine-2,6-dione], the GI50 in test [1] was under 10 nM. Moreover, in test [2], the IC50 was in the range of 20 to 200 nM. The DC50 in test [3] is under 1 nM.
Consider `CCc1c(F)ccc2cc(O)cc(-c3ncc4c(N5CCC[C@@](C)(O)C5)nc(OCC5(CN6CCC7(CC6)CN(C6CN(c8ccc9c(c8)CN(C8CCC(=O)NC8=O)C9=O)C6)C7)CC5)nc4c3F)c12` (stereo partly drawn) [Compound 163, 3-[5-[3-[7-[[1-[[7-(8-ethyl-7-fluoro-3-hydroxy-1-naphthyl)-8-fluoro-4-[(3R)-3-hydroxy-3-methyl-1-piperidyl]pyrido[4,3-d]pyrimidin-2-yl]oxymethyl]cyclopropyl]methyl]-2,7-diazaspiro[3.5]nonan-2-yl]azetidin-1-yl]-1-oxo-isoindolin-2-yl]piperidine-2,6-dione], for which the GI50 in test [1] was under 10 nM. Moreover, the IC50 in test [2] was under 20 nM. In addition, the DC50 in test [3] is under 1 nM.
With `CCc1c(F)ccc2cc(O)cc(-c3ncc4c(N5CCC[C@@](C)(O)C5)nc(OCC5(CN6CCC7(CC6)CCN(C6CN(c8ccc9c(c8)CN(C8CCC(=O)NC8=O)C9=O)C6)CC7)CC5)nc4c3F)c12` (stereo partly drawn) [Compound 164, 3-(5-(3-(9-((1-(((7-(8-ethyl-7-fluoro-3-hydroxynaphthalen-1-yl)-8-fluoro-4-((R)-3-hydroxy-3-methylpiperidin-1-yl)pyrido[4,3-d]pyrimidin-2-yl)oxy)methyl)cyclopropyl)methyl)-3,9-diazaspiro[5.5]undecan-3-yl)azetidin-1-yl)-1-oxoisoindolin-2-yl)piperidine-2,6-dione], the GI50 in test [1] is under 10 nM. The half-inhibitory concentration (IC50) in test [2] is 20 to 200 nM. Besides, the DC50 in test [3] was in the range of 1 to 10 nM.
On the same counts, the results for `CCc1c(F)ccc2cc(O)cc(-c3ncc4c(N5CCC[C@@](C)(O)C5)nc(OCC5(CN6CC7(CCN(C8CCN(c9ccc%10c(c9)CN(C9CCC(=O)NC9=O)C%10=O)CC8)CC7)C6)CC5)nc4c3F)c12` (stereo partly drawn) [Compound 166, 3-(5-(4-(2-((1-(((7-(8-ethyl-7-fluoro-3-hydroxynaphthalen-1-yl)-8-fluoro-4-((R)-3-hydroxy-3-methylpiperidin-1-yl)pyrido[4,3-d]pyrimidin-2-yl)oxy)methyl)cyclopropyl)methyl)-2,7-diazaspiro[3.5]nonan-7-yl)piperidin-1-yl)-1-oxoisoindolin-2-yl)piperidine-2,6-dione] are over 100 nM, under 20 nM and 1 to 10 nM.
On the same counts, the results for `CCc1cccc2cc(O)cc(-c3ncc4c(N5CCC[C@@](C)(O)C5)nc(OCC5(CN6CC(N7CC(N8CCN(c9ccc%10c(c9)CN([C@H]9CCC(=O)NC9=O)C%10=O)CC8)C7)C6)CC5)nc4c3F)c12` [Compound 168, (S)-3-(5-(4-(1′-((1-(((7-(8-ethyl-3-hydroxynaphthalen-1-yl)-8-fluoro-4-((R)-3-hydroxy-3-methylpiperidin-1-yl)pyrido[4,3-d]pyrimidin-2-yl)oxy)methyl)cyclopropyl)methyl)-[1,3′-biazetidin]-3-yl)piperazin-1-yl)-1-oxoisoindolin-2-yl)piperidine-2,6-dione] are over 100 nM, 20 to 200 nM and 1 to 10 nM.

Broadly, the GI50 is the concentration giving 50% growth inhibition. As a reminder, the IC50 is the concentration that inhibits the measured activity by half. Low values mean higher potency, high ones lower potency. A word on the DC50: it is the concentration at which degradation of the target reaches its halfway point. The low end stands for degradation at low concentration, the high end for degradation only at high concentration.
